# Results taken from patent publication US9526796B2, “Peptide-based in vivo siRNA delivery system” (priority 2010, dated 2016).
# Non-standard residues stand in square brackets, D forms with d. No end group written: not given here. Nle = CCCC[C@H](N)C(=O)O
# Assays:
# Factor VII = experiment: Knockdown of plasma Factor VII activity in rats after co-injection of CDM-NAG masked melittin and cholesterol-Factor VII siRNA; type: in vivo; settings: 5× CDM-NAG, 3 mg/kg cholesterol-Factor VII siRNA
# Description: (§1) RNAi polynucleotide conjugates and masked melittin peptides were synthesized as described above. Six to eight week old mice (strain C57BL/6 or ICR, ˜18-20 g each) were obtained from Harlan Sprague Dawley (Indianapolis Ind.). Mice were housed at least 2 days prior to injection. Feeding was performed ad libitum with Harlan Teklad Rodent Diet (Harlan, Madison Wis.). Mice were injected with 0.2 mL solution of delivery peptide and 0.2 mL siRNA conjugates into the tail vein. For simultaneous injection of delivery peptide and siRNA, the siRNA-conjugate was added to modified peptide prior to injection and the entire amount was injected. The composition was soluble and nonaggregating in physiological conditions. Solutions were injected by infusion into the tail vein.
# Wistar Han rats, 175-200 g were obtained from Charles River (Wilmington, Mass.). Rats were housed at least 1 week prior to injection. Injection volume for rats was typically 1 ml.
# Plasma samples from animals were prepared by collecting blood (9 volumes) (by submandibular bleeding for mice or from jugular vein for rats) into microcentrifuge tubes containing 0.109 mol/L sodium citrate anticoagulant (1 volume) following standard procedures. F7 activity in plasma is measured with a chromogenic method using a BIOPHEN VII kit (Hyphen BioMed/Aniara, Mason, Ohio) following manufacturer's recommendations. Absorbance of colorimetric development was measured using a Tecan Safire2 microplate reader at 405 nm.
# The indicated melittin was reversibly modified with 5×CDM-NAG as described above. The indicated amount of melittin, in mg per kg animal weight, was then co-injected with the 3 mg/kg cholesterol— Factor VII siRNA. Effect on Factor VII levels were determined as described above.
# ApoB = experiment: Knockdown of endogenous serum ApoB in mice after co-injection of masked melittin delivery peptide and ApoB siRNA-cholesterol conjugate; type: in vivo; settings: for % knockdown: 200 μg siRNA; for percent knockdown: CDM-NAG (5×)
# Description: as §1
# Mice were fasted for 4 h (16 h for rats) before serum collection by submandibular bleeding. For rats blood was collected from the jugular vein. Serum ApoB protein levels were determined by standard sandwich ELISA methods. Briefly, a polyclonal goat anti-mouse ApoB antibody and a rabbit anti-mouse ApoB antibody (Biodesign International) were used as capture and detection antibodies respectively. An HRP-conjugated goat anti-rabbit IgG antibody (Sigma) was applied afterwards to bind the ApoB/antibody complex. Absorbance of tetramethyl-benzidine (TMB, Sigma) colorimetric development was then measured by a Tecan Safire2 (Austria, Europe) microplate reader at 450 nm.
# Melittin was reversibly modified with CDM-NAG as described above. The indicated amount of melittin was then co-injected with the 200 μg ApoB siRNA-cholesterol conjugate. Effect on ApoB levels were determined as described above.
# Melittin was reversibly modified with CDM-NAG as described above. The indicated amount of melittin was then co-injected with 50 μg ApoB siRNA-cholesterol conjugate. Effect on ApoB levels were determined as described above.
# Melittin was reversibly modified with CDM-NAG (5×) as described above. The indicated amount of melittin was then co-injected with the indicated amount of ApoB siRNA-cholesterol conjugate. Effect on ApoB levels were determined as described above.
# Melittin was reversibly modified with the indicated amount of CDM-NAG as described above. 50 μg melittin was then co-injected with the 100 μg ApoB siRNA-cholesterol conjugate. Effect on ApoB levels were determined as described above.
# Melittin peptides having the indicated sequence were reversibly modified with CDM-NAG (5×) as described above. The indicated amount of melittin was then co-injected with the indicated amount of ApoB siRNA-cholesterol conjugate. Effect on ApoB levels were determined as described above.
# Melittin peptides containing the indicated PEG amino terminal modifications were synthesized as described above. The PEG amino terminal modified melittin peptides were then reversibly modified with 5×CDM-NAG as described above. The indicated amount of Melittin was then co-injected with the 100-200 μg ApoB siRNA-cholesterol conjugate. Effect on ApoB levels were determined as described above. Addition of PEG less than 5 kDa in size decreased toxicity of the melittin peptides.
# [1] = peptide 1 (mg per kg animal weight), relative to isotonic glucose injected animals
# [2] = amount in column 'siRNA' 400 μg
# [3] = 100 μg peptide per mouse, 100 μg siRNA per mouse
# [4] = 400 μg peptide per mouse, 100 μg siRNA per mouse
substance,measurement,setting,value
YIGAILKVLATGLPTLISWIKNKRKQ (melittin-like peptide derive from Apis florea) [Seq ID 11],Factor VII knockdown,Factor VII; [1],93
same,Factor VII knockdown,Factor VII; peptide 3 (mg per kg),97
"GIGAILKVLATGLPTLISWIKNKRKQ (listed as Apis florea) [Seq ID 1, Apis florea melittin]",% knockdown,"ApoB; 5× CDM-NAG, 100 μg peptide, relative to isotonic glucose injected animals",25%
same,% knockdown,"ApoB; 5× CDM-NAG, 200 μg peptide",51%
same,% knockdown,"ApoB; 5× CDM-NAG, 400 μg peptide",78%
same,% knockdown,"ApoB; 5× CDM-NAG, 800 μg peptide",87%
same,% knockdown,"ApoB; 5× CDM-NAG, 1200 μg peptide",94%
same,% knockdown,"ApoB; 5× CDM-PEG, 800 μg peptide, relative to isotonic glucose injected animals",0%
same,percent knockdown,ApoB; amount in column 'siRNA' 200 μg,90%
same,percent knockdown,ApoB; [2],80%
same,Factor VII knockdown,Factor VII; [1],30
same,Factor VII knockdown,Factor VII; peptide 3 (mg per kg),83
same,Factor VII knockdown,Factor VII; peptide 10 (mg per kg),90
same,Factor VII knockdown,Factor VII; peptide 20 (mg per kg),95
"G1L, K7R (Seq ID 19): melittin peptide derivative (LIGAILRVLATGLPTLISWIKNKRKQ; melittin-like peptide derive from Apis florea)",percent knockdown,ApoB; [3],92%
QKRKNKIWSILTPLGTALVKLIAGIG-NH2 [Seq ID 96],percent knockdown,ApoB; siRNA 20 mg/kg,70%
"G1L retroMel-Stearoyl (Seq ID 74): melittin peptide derivative (QKRKNKIWSILTPLGTALVKLIAGIL; also: stearoyl, site not given here)",percent knockdown,ApoB; [4],56%
"G1Y, K25A (Seq ID 31): melittin peptide derivative (YIGAILKVLATGLPTLISWIKNKRAQ; melittin-like peptide derive from Apis florea)",percent knockdown,ApoB; [3],77%
QQRKRKIWSILAPLGTTLVKLVAGIC-NH2 [Seq ID 92],percent knockdown,ApoB; [2],85%
same,percent knockdown,ApoB; siRNA 20 mg/kg,94%
N22T Mel-NH2 (Seq ID 15): melittin peptide derivative (GIGAILKVLATGLPTLISWIKTKRKQ-NH2),percent knockdown,"ApoB; 50 μg peptide per mouse, 100 μg siRNA per mouse",34%
G1A (Seq ID 2): melittin peptide derivative (AIGAILKVLATGLPTLISWIKNKRKQ; melittin-like peptide derive from Apis florea),percent knockdown,ApoB; [3],88%
"G1L retroMel-KLK-Stearoyl (Seq ID 75): melittin peptide derivative (KLKQKRKNKIWSILTPLGTALVKLIAGIL; also: stearoyl, site not given here)",percent knockdown,ApoB; [4],50%
"G1L, R24A (Seq ID 30): melittin peptide derivative (LIGAILKVLATGLPTLISWIKNKAKQ; melittin-like peptide derive from Apis florea)",percent knockdown,ApoB; [3],87%
"G1L, L5V, A10T, T15A, N22G, K23E dMel (1-23) (Seq ID 73): melittin peptide derivative",percent knockdown,ApoB; [4],92%
G1Nle Mel-C (Seq ID 64): melittin peptide derivative ([Nle]IGAILKVLATGLPTLISWIKNKRKQC),percent knockdown,"ApoB; 400 μg peptide per mouse, 50 μg siRNA per mouse",89%
"G1L, L5V, A10T, T15A Mel (1-23) (Seq ID 72): melittin peptide derivative",percent knockdown,ApoB; [4],69%
"G1L, T15C dMel (Seq ID 24): melittin peptide derivative ([dL][dI]G[dA][dI][dL][dK][dV][dL][dA][dT]G[dL][dP][dC][dL][dI][dS][dW][dI][dK][dN][dK][dR][dK][dQ])",percent knockdown,ApoB; [3],95%
"G1Y, K7A (Seq ID 17): melittin peptide derivative (YIGAILAVLATGLPTLISWIKNKRKQ; melittin-like peptide derive from Apis florea)",percent knockdown,ApoB; [4],83%
"G1Y, K7N (Seq ID 16): melittin peptide derivative (YIGAILNVLATGLPTLISWIKNKRKQ; melittin-like peptide derive from Apis florea)",percent knockdown,"ApoB; 80 μg peptide per mouse, 100 μg siRNA per mouse",32%
"G1L, T11C, S18C dMel (Seq ID 38): melittin peptide derivative ([dL][dI]G[dA][dI][dL][dK][dV][dL][dA][dC]G[dL][dP][dT][dL][dI][dC][dW][dI][dK][dN][dK][dR][dK][dQ]; cysteine pairing not given here)",percent knockdown,ApoB; [3],88%
"G1Y, Q26C (Seq ID 32): melittin peptide derivative (YIGAILKVLATGLPTLISWIKNKRKC; melittin-like peptide derive from Apis florea)",percent knockdown,ApoB; [3],93%
